# Assay results reported in patent publication EP0167459B1, “2-Amino oxazolines and process for their preparation” (priority 1984, dated 1986).
# How the values were obtained:
# [1] = target: 5-HT (Homo sapiens, UniProt P31645); experiment: Inhibition of neurotransmitter uptake in vitro, 5-HT; assay type: cell-based; details: for IC50: 5-HT = (so in the source), read-out: UPTAKE NEUROTRANSMETTEUR IN VITRO IC 50 M 5-HT
# [2] = target: NAd (Homo sapiens, UniProt P23975); experiment: Inhibition of neurotransmitter uptake in vitro, noradrenaline; assay type: cell-based; details: NAd = Noradrénaline; for IC50: read-out: UPTAKE NEUROTRANSMETTEUR IN VITRO IC 50 M NAd
# [3] = target: DA (Homo sapiens, UniProt Q01959); experiment: Inhibition of neurotransmitter uptake in vitro, dopamine; assay type: cell-based; details: for IC50: read-out: UPTAKE NEUROTRANSMETTEUR IN VITRO IC 50 M DA; for UPTAKE NEUROTRANSMETTEUR IN VITRO IC 50 M DA: DA = Dopamine
# [4] = target: RECEPTEURS α2; experiment: Affinity for the α2 receptor in vitro; assay type: binding; details: read-out: AFFINITE RECEPTEURS α2 IN VITRO IC […]; read-out: […] […] α2 IN VITRO IC 50 M
# [5] = mouse, doses 0,75 à 20 mg/kg
# [6] = Cardiovascular activity in the anaesthetised dog; assay type: in vivo, chien
# Excerpt: Les 2-amino-oxazolines selon l'invention se caractérisent par des propriétés pharmacologiques intéressantes, et notamment par des propriétés anti-dépressives, hypertensives et analeptiques vasculaires. Elles agissent sur les récepteurs α₂, soit par un phénomène de bloquage, soit par un effet agoniste. […] Cet effet s'apparente donc à celui de la Yohimbine.
# Chez le chien anesthésié, l'injection des produits selon l'invention provoque une hypertension durable, à des doses relativement faibles, allant de 0,05 à 1 mg/kg I.V.
# [7] = Motor activity (exploration) in the mouse; assay type: in vivo, souris
# [8] = system: récepteurs α₂; details: lizard; Carter and Shuster, Br. J. Pharmacol. (1982), 75, 169-176; cited from earlier work
# [9] = in vivo
# Sequence of 5-HT (P31645 whole entry): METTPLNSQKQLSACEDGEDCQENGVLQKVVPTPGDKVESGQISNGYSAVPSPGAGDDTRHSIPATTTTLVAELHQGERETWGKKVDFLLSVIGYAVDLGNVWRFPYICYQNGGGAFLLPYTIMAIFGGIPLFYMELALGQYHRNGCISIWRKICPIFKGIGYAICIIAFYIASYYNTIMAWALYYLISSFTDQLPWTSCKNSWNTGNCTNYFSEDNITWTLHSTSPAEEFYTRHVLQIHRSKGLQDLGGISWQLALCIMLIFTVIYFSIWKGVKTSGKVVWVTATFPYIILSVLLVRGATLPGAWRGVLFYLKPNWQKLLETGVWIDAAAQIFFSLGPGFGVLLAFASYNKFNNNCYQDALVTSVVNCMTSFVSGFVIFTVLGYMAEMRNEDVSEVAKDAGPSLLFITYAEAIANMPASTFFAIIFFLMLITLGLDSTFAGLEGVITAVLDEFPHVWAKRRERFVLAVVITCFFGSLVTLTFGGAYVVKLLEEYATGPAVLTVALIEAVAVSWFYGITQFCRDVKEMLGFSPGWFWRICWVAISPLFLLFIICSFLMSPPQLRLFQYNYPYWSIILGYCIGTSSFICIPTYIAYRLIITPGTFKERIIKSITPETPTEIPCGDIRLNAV
# Sequence of NAd (P23975 whole entry): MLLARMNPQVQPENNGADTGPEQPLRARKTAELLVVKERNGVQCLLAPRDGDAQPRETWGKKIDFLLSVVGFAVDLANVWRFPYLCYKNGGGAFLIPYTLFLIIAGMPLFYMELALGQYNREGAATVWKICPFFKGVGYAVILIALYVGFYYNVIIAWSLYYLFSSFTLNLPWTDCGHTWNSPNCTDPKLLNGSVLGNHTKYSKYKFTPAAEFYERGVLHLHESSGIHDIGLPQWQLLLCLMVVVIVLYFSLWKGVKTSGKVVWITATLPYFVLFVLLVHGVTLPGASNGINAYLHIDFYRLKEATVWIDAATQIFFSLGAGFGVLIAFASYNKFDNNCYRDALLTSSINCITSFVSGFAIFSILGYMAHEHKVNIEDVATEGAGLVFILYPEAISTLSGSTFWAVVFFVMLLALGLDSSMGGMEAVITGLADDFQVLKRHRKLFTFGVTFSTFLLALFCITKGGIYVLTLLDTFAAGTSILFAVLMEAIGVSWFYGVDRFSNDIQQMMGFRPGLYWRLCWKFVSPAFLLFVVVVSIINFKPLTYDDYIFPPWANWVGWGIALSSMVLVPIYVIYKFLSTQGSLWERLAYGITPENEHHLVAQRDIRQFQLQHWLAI
# Sequence of DA (Q01959 whole entry): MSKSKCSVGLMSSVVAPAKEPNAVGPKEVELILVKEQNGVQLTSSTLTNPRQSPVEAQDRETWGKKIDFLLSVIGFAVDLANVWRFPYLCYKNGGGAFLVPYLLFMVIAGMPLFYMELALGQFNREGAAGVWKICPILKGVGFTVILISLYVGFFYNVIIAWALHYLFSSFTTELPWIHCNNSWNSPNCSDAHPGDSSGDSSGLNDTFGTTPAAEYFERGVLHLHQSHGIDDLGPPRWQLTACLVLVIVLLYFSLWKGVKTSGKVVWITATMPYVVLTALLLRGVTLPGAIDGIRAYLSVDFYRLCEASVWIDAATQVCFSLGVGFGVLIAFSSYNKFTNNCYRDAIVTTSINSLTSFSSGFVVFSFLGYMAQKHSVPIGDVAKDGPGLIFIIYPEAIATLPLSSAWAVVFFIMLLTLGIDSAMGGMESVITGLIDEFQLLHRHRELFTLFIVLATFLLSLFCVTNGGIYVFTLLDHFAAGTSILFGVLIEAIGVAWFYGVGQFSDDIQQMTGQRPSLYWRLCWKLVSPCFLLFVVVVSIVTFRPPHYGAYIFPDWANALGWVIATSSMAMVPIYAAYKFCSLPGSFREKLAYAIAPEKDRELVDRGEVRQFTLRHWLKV
SMILES,IC50 [1] [µM],IC50 [3] [µM],IC50 [2] [µM],IC50 [4] [µM],further results
"NC1=NC(COc2ccccc2)CO1 (racemic) [ex. 6, 4-phénoxy-méthyl 2-amino-oxazoline]",> 10,> 10,,,UPTAKE NEUROTRANSMETTEUR IN VITRO IC 50 M NAd [2]: nul à 10^-5
NC1=NC(Cc2ccc(Cl)cc2)CO1 (racemic) [ex. 10],4,2.3,4,0.044,
NC1=NC(Cc2ccccc2Cl)CO1 (racemic) [ex. 11],> 10,> 10,2.5,0.0027,
NC1=NC(CCc2ccccc2)CO1 (racemic) [ex. 13],,,0.23,> 0.1,UPTAKE NEUROTRANSMETTEUR IN VITRO IC 50 M 5-HT ([1]; 5-HT = 5-hydroxytryptophane (so in the source)): nul à 10^-6; UPTAKE NEUROTRANSMETTEUR IN VITRO IC 50 M DA [3]: nul à 10^-6
NC1=NC(Cc2ccc(O)cc2)CO1 (racemic) [ex. 20],,,,> 0.1,
"NC1=NC(Cc2ccccc2)CO1 (single isomer, unassigned) [ex. 12]",> 10,4,0.4,0.004,
"NC1=NC(Cc2ccccc2Cl)CO1 (single isomer, unassigned) [ex. 23]",,,,0.0033,
Clc1cccc(Cl)c1N=C1NCCN1 [CLONIDINE],,,,0.001,température centrale [5]: baisse de température; activité vasomotrice (vasodilatation ou vasoconstriction primaire) [6]: activité vasoconstrictive d'emblée; exploration [7]: diminuent l'exploration; noircissement qui résulte du traitement par le MSH [8]: antagonisé; activité diabétogène [9]: activité diabétogène expérimentale
"c1ccc2c(c1)OCC(C1=NCCN1)O2 (centres unmarked) [IDAZOXAN, reference compound]",,,,0.029,
"Cc1ccc(N(CC2=NCCN2)c2cccc(O)c2)cc1 [PHENTOLAMINE, reference compound]",,,,0.022,
"NC1=NC(COc2ccccc2Cl)CO1 (centres unmarked) [ex. 5, 4-(2-chlorophénoxyméthyl) 2-amino-oxazoline]",2.8,7.2,> 10,0.033,
"COc1ccc(OCC2COC(N)=N2)cc1 (centres unmarked) [ex. 7, 4-(4-méthoxyphenoxymethyl) 2-amino-oxazoline]",> 10,,,> 0.1,UPTAKE NEUROTRANSMETTEUR IN VITRO IC 50 M NAd [2]: nul à 10^-5; UPTAKE NEUROTRANSMETTEUR IN VITRO IC 50 M DA [3]: nul à 10^-5
"NC1=NC(COCc2ccccc2)CO1 (centres unmarked) [ex. 8, 4-(benzyloxy-méthyl) 2-amino-oxazoline]",> 10,,,> 0.1,UPTAKE NEUROTRANSMETTEUR IN VITRO IC 50 M NAd [2]: nul à 10^-5; UPTAKE NEUROTRANSMETTEUR IN VITRO IC 50 M DA [3]: nul à 10^-5
